Data from US20120244192A1, “SUSTAINED RELEASE FORMULATIONS OF PEPTIDOMIMETIC DRUGS AND USES THEREOF” (priority 2009, published 2012).

Assays:
C5a receptor = biological target: T1, C5a receptor (Mus musculus, UniProt P30993); experiment: Reverse Passive Arthus Reaction model, immune complex peritonitis; assay type: in vivo, mice; settings: intraperitoneal injection of 1 mg/kg as a liquid formulation
T1 construct: from tissue; host or cells: live mice (peritoneal neutrophil chemotaxis, in vivo)
T1 sequence (P30993 1-351): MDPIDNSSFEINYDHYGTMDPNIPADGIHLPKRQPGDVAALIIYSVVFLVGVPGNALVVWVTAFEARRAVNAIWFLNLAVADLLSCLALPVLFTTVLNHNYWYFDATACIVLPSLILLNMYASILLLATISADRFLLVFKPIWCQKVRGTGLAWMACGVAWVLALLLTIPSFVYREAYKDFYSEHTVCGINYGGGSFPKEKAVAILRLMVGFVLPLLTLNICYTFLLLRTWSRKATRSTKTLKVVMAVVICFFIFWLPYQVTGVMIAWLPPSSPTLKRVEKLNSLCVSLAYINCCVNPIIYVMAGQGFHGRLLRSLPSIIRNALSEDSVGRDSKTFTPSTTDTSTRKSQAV
Source text: C5a is a potent chemokine, inducing polymorphic nucleated granulocyte (neutrophils) and monocyte/macrophage chemotaxis. In the Reverse Passive Arthus Reaction model in mice, an immune complex peritonitis is induced by the intravenous administration of ovalbumin followed by intraperitoneal administration of an anti-ovalbumin antiserum, which leads to the formation of antigen-antibody complexes and subsequent activation of the complement system, including generation of C5a [Heller et al., 1999]. (Heller et al (1999) J Immunol 163; 985-994).

C5aR = biological target: T2, C5aR (Mus musculus, UniProt P30993); experiment: Allogenic kidney transplantation model (ischemia reperfusion injury); assay type: in vivo, mice
T2 construct: from tissue; host or cells: live mice (kidney allograft recipients, in vivo)
T2 sequence (P30993 1-351): T1 sequence (P30993 1-351)
Source text: (Arumugam, T. V., Shiels I. A., Strachan, A. J., et al (2003) A small molecule C5a receptor antagonist protects kidneys from ischemia/reperfusion injury in rats. Kidney Int 63; 134-142, De Vries B, Matthijsen R A, Wolfs T G et al (2003a) Inhibition of complement factor C5 protects against renal ischemia-reperfusion injury: inhibition of late apoptosis and inflammation Transplantation 75; 375-382, De Vries B, Kohl J, Leclercq W K et al (2003b) Complement factor C5a mediates renal ischemia-reperfusion injury independent of neutrophils. J Immunol 170; 3883-3889.) JPE1375 liquid formulation is active in an allogenic transplantation model in mice. In this model rejection of the transplant is based on an ischemia reperfusion injury with measures of animal/graft survival and renal function. Blockade of C5aR with JPE1375 liquid formulation after transplantation prolonged survival of the animals from days to greater than 12 weeks compared to controls. C5aR blockade with JPE1375 microparticle sustained release formulation is expected to provide similar benefit after a single dose.

## Hoo-Phe-Orn-Pro-hle-Pff-Phe-NH2 [JPE1375]
C5a receptor
  inhibition of C5a receptor mediated chemotaxis: high in vivo potency
C5aR; after transplantation, prolonged from days, compared to controls
  survival of the animals: greater than 12 weeks
C5aR; liquid formulation
  activity in allogenic transplantation model: active
